Measured values published in US8217014B2, “Pharmaceutical composition for treatment of blood clotting disorder” (National University Corporation Nagoya University, priority 2006, dated 2012).
Several values for one entry are separate records, joined by “and”; a condition that tells them apart may be missing. Equal values may be shown once.

What was measured:
coagulation factor VII = assay: Coagulation activity of coagulation factor VII in the plasma of hemophilia patients
[1] = tested on: prothrombin time (PT) in the plasma; assay: Prothrombin time (PT) in the plasma of chronic hepatitis C patients with or without hemophilia; assay type: in vivo, human; conditions: for PT Increase Rate: 12 weeks after start versus before; for PT After Therapy: 12 weeks after start
Procedure: Of these patients, 9 patients were with hemophilia and 27 hepatitis patients were without hemophilia. Pegintron was administered to all the patients once a week with the dosage of 1.5 μg/Kg for 48 weeks, whereas Rebetol was simultaneously administered to the 9 hemophilia patients with the dosage of Administration Example 1 (600 mg to 800 mg per day).
The prothrombin time (PT) in the plasma was measured for the patients before the start of the dosing and 12 weeks after the start of the dosing, for the purpose of evaluation of the coagulation activity.

HCV = assay: Eradication of HCV in HCV-positive patients with hemophilia; assay type: in vivo, human
Procedure: (§1) Ribavirin was orally administered, while the interferon was intravenously administered.
(§2) Interferon α-2b alone was administered to the patients Nos. 1, 2, 3, and 5, prior to the combined administration of this Example 1. In the interferon single dosing period, the interferon was administered to the patients Nos. 1, 2, 3, and 5 every day with the dosage of 6 MU (million units) per day for the first 2 weeks and 3 times per week for the subsequent 22 weeks. […] In the combined administration of this Example 1, Intron A was administered to all the patients every day with the dosage of 6 MU per day for the first 2 weeks and 3 times per week for the subsequent 22 weeks.
The HCV-RNA level was measured at the start of treatment with Amplicor HCV Assay, version 2.0 (Roche Diagnostic Systems).
Eradication of HCV was considered positive when the absence of serum HCVRNA was maintained for 24 weeks after the treatment was completed.

[2] = tested on: HCV-positive patients with hemophilia; assay: Bleeding requiring treatment and use of clotting factors in hemophilia patients (patient logs); assay type: in vivo, human
Procedure: as §1, §2
The use of clotting factors was assessed by patient logs. The clotting factors are generally not used for patients with mild hemophilia. The doses (mean value) of the clotting factors before the combined dosing period of this Example 1, during the combined dosing period, and after the combined dosing period were evaluated. A significant difference at P<0.05 was evaluated by (paired) t-test. Ability to perform activities of daily living was assessed by interview.

[3] = tested on: coagulation factor X mRNA; assay: mRNA expression of coagulation factor X, real-time quantitative RT-PCR, hepatic cell lines; assay type: cell-based; conditions: ribavirin 150 μg/ml in the presence of interferon α-2b 0.75 μg/ml; data not shown
Procedure: (§3) The mRNA expression levels of the coagulation factors VII and X and prothrombin were measured according to the protocols of real-time quantitative RT-PCR with ABI Prism 7700 Sequence Detection (Perkin Elmer Biosystems, Foster City, Calif., USA) and SYBR Green PCR kit (Perkin Elmer Biosystems). The real-time quantitative RT-PCR was repeated twice. The following […] were used for determination of the mRNA of the genes.

coagulation factor X = assay: Coagulation activity of coagulation factor X in the plasma; assay type: in vivo, human; conditions: before and after the start of the combined dosing, data not shown
prothrombin mRNA = assay: mRNA expression of prothrombin, real-time quantitative RT-PCR, hepatic cell lines; assay type: cell-based; conditions: ribavirin 150 μg/ml in the presence of interferon α-2b 0.75 μg/ml; data not shown
Procedure: as §3

[4] = tested on: coagulation factor VII mRNA in HepG2 cell line; assay: mRNA expression of coagulation factor VII, real-time quantitative RT-PCR, HepG2 cell line; assay type: cell-based, human; conditions: ribavirin 150 μg/ml in the presence of interferon α-2b 0.75 μg/ml, 48 hours, p<0.02
Procedure: as §3

[5] = tested on: coagulation factor VII mRNA in hepatic parenchymal cell line; assay: mRNA expression of coagulation factor VII, real-time quantitative RT-PCR, normal hepatic parenchymal cell line; assay type: cell-based; conditions: ribavirin 150 μg/ml in the presence of interferon α-2b 0.75 μg/ml, 48 hours, p<0.01
Procedure: as §3

[6] = tested on: HCV-positive patients with hemophilia; assay: Bleeding requiring treatment and use of clotting factors in hemophilia patients (patient logs); assay type: in vivo, human; conditions: 47 hemophilia patients with hepatitis C
[7] = 4 weeks after start of combined dosing, 9 patients

For `NC(=O)c1ncn([C@@H]2O[C@H](CO)[C@@H](O)[C@H]2O)n1` [ribavirin, 1-β-D-ribofuranosyl-1,2,4-triazole-3-carboxamide], the “Factor VII coagulation activity increase in the 2 patients without significant increase” value (coagulation factor VII; 2 of the 9 patients (one HIV positive, one hepatitis C and hepatitis B virus positive)) was 5% and 8%, the “Factor VII coagulation activity increase, maximum” value (coagulation factor VII; [7]) was 28% and the “Factor VII coagulation activity increase, minimum” value (coagulation factor VII; [7]) was 5%. The “Factor VII Clotting Activity Increase Rate” value (coagulation factor VII; 4 weeks after start versus before start of combined dosing, 9 hemophilia patients, p<0.04) was 15.7 ± 8.8%, the “Factor VII Clotting Activity After Start of Therapy” value (coagulation factor VII; plasma, 4 weeks after start of combined dosing (ribavirin 600-800 mg/day + interferon α-2b), 9 hemophilia patients, before start 86.3 ± 7.6%) was 102.0 ± 10.3% and the “PT Increase Rate” value ([1]; Hemophilia Group n = 9) was 9.4 ± 8.4%. The “PT After Therapy” value ([1]; Hemophilia Group n = 9, Rebetol 600-800 mg/day + Pegintron 1.5 μg/Kg once a week, before therapy 90.0 ± 12.2%) was 99.4 ± 14.3%, the “PT Increase Rate” value ([1]; Non-Hemophilia Group n = 27) was 5.4 ± 12.6% and the “PT After Therapy” value ([1]; Non-Hemophilia Group n = 27, Pegintron 1.5 μg/Kg once a week, combined administration, before therapy 94.9 ± 14.4%) was 100.0 ± 16.8%. The “Eradication of HCV” value (HCV; oral ribavirin 600-800 mg/day combined with interferon α-2b (Intron A) for 24 weeks, YES = absence of serum HCV-RNA maintained 24 weeks after treatment, per patient (Nos. 1-8)) was “YES”, the “monthly mean dosage of the clotting factors in the combined dosing period” value ([2]; 5 patients with moderate or severe hemophilia, ribavirin + interferon α-2b, standard deviation 1488, 3783 U (SD 2646) in the 6 months before, P<0.03) was 1605 U and the “monthly mean dosage of the clotting factors in the 6-month period after the combined dosing period” value ([2]; 5 patients with moderate or severe hemophilia, standard deviation 1528, 3783 U (SD 2646) in the 6 months before, P<0.06) was 1667 U. For the same compound, the “Times of Bleeding Requiring Treatment, After Therapy” value ([2]; monthly mean bleeding frequency treated with clotting factors, after the combined dosing period of ribavirin and interferon α-2b, patient (Nos. 1, 2, 3, 5, 8)) was 0.7 and 0.0 and 1.6 and 4.1 and 2.2, the “Times of Bleeding Requiring Treatment, During Therapy” value ([2]; monthly mean bleeding frequency treated with clotting factors, combined dosing period of ribavirin and interferon α-2b, patient (Nos. 1, 2, 3, 5, 8)) was 0.2 and 0.8 and 0.7 and 3.0 and 2.6 and the “bleeding tendency in the combined dosing period compared with the interferon single dosing period” value ([2]; patients Nos. 1, 2, 3 and 5, ribavirin + interferon α-2b) was “significantly reduced”. For the same compound, the “mRNA induction of the coagulation factor X” value [3] was “No significant induction”, the “change in coagulation activity of the coagulation factor X” value (coagulation factor X) was “No significant change” and the “mRNA induction of prothrombin” value (prothrombin mRNA) was “No significant induction”. For the same compound, the “mRNA induction of the coagulation factor VII” value [4] was “about 3 times” and the “mRNA induction of the coagulation factor VII” value [5] was “about 4 times”.

For interferon α-2b, the “reduction of the bleeding tendency by single interferon dosing” value [6] was “No such reduction” and the “Elimination of HCV in interferon single dosing period” value (HCV; interferon α-2b alone, 6 MU per day for 2 weeks then 3 times per week for 22 weeks, patients Nos. 1, 2, 3, 5) was “not eliminated”.
